Source: ChEMBL document CHEMBL3991601, “The target landscape of clinical kinase drugs” (Science, 2017)
Active and inactive are the calls of the source.

Tests used:
[1] = biological target: Calcium/calmodulin-dependent protein kinase kinase 2 (Homo sapiens, UniProt Q96RR4)
[2] = biological target: Serine/threonine-protein kinase MRCK gamma (Homo sapiens, UniProt Q6DT37)
[3] = biological target: Guanine nucleotide-binding protein G(i) subunit alpha-2 (Homo sapiens, UniProt P04899)
[4] = biological target: T1, Signal recognition particle receptor subunit alpha (Homo sapiens, UniProt P08240)
T1 sequence (P08240 whole entry): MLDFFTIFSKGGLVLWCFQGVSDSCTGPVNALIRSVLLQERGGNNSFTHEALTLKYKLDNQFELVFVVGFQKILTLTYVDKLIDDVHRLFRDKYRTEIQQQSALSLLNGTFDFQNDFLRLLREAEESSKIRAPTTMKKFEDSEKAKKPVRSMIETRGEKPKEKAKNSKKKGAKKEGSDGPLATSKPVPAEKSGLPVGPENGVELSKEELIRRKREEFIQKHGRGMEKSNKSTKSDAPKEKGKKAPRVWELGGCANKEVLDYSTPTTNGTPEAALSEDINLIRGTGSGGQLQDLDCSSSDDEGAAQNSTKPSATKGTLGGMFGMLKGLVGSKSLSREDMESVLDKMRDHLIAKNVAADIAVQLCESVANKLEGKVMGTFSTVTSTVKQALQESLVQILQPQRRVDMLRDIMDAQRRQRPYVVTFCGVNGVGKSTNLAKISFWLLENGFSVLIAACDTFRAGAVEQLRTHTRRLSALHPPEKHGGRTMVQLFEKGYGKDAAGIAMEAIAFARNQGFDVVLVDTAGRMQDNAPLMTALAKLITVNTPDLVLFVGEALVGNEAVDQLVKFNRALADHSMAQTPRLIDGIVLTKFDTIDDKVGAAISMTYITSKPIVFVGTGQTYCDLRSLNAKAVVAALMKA

[5] = biological target: T2, Tyrosine-protein kinase Tec (Homo sapiens, UniProt P42680)
T2 sequence (P42680 whole entry): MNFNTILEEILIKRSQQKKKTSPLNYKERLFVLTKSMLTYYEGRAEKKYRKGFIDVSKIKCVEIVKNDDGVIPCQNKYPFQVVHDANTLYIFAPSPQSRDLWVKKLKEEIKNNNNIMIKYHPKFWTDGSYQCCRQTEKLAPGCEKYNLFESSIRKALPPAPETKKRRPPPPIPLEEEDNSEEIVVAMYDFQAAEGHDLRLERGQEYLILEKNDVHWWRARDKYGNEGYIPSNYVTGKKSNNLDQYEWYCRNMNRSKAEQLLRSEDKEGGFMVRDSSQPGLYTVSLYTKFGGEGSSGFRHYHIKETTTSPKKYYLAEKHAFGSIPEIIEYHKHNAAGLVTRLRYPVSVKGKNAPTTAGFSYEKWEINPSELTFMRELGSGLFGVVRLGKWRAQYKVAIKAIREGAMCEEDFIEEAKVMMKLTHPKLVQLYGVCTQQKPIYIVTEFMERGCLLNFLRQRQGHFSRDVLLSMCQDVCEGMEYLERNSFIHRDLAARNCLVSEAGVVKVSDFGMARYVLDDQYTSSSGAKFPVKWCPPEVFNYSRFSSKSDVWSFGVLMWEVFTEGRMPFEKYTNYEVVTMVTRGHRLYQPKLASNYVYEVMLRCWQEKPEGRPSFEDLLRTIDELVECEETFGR

[6] = biological target: T3, Serine/threonine-protein kinase D3 (Homo sapiens, UniProt O94806)
T3 sequence (O94806 whole entry): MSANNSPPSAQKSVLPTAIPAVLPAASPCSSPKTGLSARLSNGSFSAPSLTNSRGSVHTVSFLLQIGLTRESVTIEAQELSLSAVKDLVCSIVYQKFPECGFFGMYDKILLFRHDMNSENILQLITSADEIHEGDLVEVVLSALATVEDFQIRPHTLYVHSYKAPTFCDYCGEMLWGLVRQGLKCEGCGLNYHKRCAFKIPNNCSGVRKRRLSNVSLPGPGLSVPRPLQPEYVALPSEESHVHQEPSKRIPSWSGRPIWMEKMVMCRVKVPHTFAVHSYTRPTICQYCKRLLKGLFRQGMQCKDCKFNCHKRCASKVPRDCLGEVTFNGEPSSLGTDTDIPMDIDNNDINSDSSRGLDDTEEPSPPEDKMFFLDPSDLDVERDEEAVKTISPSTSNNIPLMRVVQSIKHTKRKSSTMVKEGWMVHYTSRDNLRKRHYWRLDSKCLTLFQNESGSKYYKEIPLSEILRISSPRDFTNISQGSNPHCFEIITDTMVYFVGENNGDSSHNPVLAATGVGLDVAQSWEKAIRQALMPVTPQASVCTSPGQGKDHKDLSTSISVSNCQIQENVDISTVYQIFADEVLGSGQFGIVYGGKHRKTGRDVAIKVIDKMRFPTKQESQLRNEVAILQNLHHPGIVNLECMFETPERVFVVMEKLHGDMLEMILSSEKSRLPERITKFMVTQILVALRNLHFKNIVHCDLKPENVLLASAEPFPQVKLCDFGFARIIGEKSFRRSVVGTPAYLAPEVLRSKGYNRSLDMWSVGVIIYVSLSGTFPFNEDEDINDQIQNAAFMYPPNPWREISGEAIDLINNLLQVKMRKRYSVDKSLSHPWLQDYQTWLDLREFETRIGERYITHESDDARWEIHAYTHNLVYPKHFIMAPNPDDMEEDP
Also: in the data inactive means no Kd found up to 30 µM.

Chain of Guanine nucleotide-binding protein G(i) subunit alpha-2 (P04899 whole entry): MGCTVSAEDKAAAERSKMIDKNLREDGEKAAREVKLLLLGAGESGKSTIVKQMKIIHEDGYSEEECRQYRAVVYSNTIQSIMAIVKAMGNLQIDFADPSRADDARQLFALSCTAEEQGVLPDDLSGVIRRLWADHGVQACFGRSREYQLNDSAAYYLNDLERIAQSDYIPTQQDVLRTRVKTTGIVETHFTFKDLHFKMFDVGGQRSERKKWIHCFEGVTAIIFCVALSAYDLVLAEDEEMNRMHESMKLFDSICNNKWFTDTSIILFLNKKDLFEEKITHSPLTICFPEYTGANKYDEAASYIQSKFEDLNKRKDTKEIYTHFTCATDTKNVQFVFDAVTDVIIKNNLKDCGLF
Chain of Calcium/calmodulin-dependent protein kinase kinase 2 (Q96RR4 whole entry): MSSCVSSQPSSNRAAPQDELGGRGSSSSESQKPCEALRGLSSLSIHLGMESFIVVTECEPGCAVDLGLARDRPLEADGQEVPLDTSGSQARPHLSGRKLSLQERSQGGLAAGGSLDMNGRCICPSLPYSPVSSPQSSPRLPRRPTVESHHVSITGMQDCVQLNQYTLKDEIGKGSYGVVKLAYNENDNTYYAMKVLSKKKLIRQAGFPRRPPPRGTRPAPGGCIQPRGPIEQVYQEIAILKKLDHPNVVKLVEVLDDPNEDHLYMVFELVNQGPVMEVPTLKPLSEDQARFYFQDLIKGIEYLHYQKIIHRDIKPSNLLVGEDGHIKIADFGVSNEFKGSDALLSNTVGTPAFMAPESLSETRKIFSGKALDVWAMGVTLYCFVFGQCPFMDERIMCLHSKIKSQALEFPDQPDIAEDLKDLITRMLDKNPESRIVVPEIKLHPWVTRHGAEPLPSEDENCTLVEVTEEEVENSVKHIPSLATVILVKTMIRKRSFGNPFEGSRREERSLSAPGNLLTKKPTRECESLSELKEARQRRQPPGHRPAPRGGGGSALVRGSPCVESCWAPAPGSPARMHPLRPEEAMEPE
Chain of Serine/threonine-protein kinase MRCK gamma (Q6DT37 whole entry): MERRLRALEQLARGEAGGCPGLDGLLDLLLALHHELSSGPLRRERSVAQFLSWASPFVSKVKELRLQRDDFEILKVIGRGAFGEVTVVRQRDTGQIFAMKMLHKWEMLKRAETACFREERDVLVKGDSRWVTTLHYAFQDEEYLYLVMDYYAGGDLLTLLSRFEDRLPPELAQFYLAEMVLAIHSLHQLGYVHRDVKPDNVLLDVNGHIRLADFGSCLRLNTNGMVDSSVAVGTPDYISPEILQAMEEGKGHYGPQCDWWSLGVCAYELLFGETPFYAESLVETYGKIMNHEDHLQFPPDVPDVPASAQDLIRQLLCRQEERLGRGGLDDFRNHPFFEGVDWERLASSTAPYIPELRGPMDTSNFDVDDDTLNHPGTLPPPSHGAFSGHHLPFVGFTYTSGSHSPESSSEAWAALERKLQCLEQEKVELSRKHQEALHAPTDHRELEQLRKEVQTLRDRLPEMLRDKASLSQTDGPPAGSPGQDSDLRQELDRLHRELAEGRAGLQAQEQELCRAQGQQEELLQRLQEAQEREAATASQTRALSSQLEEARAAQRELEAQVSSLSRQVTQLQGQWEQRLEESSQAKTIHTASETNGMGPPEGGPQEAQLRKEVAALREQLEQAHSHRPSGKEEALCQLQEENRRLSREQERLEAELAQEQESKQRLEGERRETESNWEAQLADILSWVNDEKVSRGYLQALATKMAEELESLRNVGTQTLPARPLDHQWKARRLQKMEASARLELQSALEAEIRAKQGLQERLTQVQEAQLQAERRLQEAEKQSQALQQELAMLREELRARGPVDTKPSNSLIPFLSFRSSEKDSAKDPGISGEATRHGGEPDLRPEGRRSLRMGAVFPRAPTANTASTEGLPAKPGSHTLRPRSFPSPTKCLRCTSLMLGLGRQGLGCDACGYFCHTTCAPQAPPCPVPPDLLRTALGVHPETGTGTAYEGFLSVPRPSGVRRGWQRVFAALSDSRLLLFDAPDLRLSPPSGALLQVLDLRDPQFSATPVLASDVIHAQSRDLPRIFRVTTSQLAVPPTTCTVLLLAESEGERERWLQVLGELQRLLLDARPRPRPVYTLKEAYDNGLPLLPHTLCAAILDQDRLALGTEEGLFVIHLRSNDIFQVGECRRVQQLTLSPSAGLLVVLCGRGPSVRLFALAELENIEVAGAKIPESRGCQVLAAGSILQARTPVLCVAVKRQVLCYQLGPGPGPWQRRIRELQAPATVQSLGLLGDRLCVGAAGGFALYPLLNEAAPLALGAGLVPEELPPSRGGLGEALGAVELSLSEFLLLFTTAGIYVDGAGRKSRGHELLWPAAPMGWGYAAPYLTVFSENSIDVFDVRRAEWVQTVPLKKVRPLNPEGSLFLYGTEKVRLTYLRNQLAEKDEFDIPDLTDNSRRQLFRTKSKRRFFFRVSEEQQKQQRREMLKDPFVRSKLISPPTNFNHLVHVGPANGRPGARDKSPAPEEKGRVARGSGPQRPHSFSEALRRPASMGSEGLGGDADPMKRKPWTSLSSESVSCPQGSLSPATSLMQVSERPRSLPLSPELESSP

SMILES | Kd [1] | Kd [2] | Kd [3] | Kd [4] | Kd [5] | Kd [6]
C=CCn1c(=O)c2cnc(Nc3ccc(N4CCN(C)CC4)cc3)nc2n1-c1cccc(C(C)(C)O)n1 [ADAVOSERTIB] | > 30 µM (inactive) | > 30 µM (inactive) | > 30 µM (inactive) | > 30 µM (inactive) | > 30 µM (inactive) | –
CN(C)C/C=C/C(=O)Nc1cc2c(Nc3ccc(F)c(Cl)c3)ncnc2cc1O[C@H]1CCOC1 [AFATINIB] | – | – | > 30 µM (inactive) | > 30 µM (inactive) | – | –
CCN(CCCOc1ccc2c(Nc3cc(CC(=O)Nc4cccc(F)c4)n[nH]3)ncnc2c1)CCOP(=O)(O)O [BARASERTIB] | – | > 30 µM (inactive) | > 30 µM (inactive) | – | > 30 µM (inactive) | –
COc1ccc(-c2ccc3ncc4c(c3c2)n(-c2ccc(N3CCNCC3)c(C(F)(F)F)c2)c(=O)n4C)cn1 [BGT-226 FREE BASE] | > 30 µM (inactive) | > 30 µM (inactive) | – | – | > 30 µM (inactive) | > 30 µM (inactive)
COc1cccc(Nc2ncnn3ccc(CN4CC[C@@H](N)[C@H](O)C4)c23)c1 [BMS-690514] | > 30 µM (inactive) | – | > 30 µM (inactive) | – | > 30 µM (inactive) | 0.493 µM (active)
C[C@@]1(C(=O)Nc2ccc(F)nc2)CCCN1c1nc(Nc2cc(C3CC3)n[nH]2)c2cccn2n1 [BMS-754807] | – | – | > 30 µM (inactive) | > 30 µM (inactive) | – | –
CCOc1ccn(-c2ccc(F)cc2)c(=O)c1C(=O)Nc1ccc(Oc2ccnc(N)c2Cl)c(F)c1 [BMS-777607] | > 30 µM (inactive) | – | > 30 µM (inactive) | > 30 µM (inactive) | > 30 µM (inactive) | > 30 µM (inactive)
COc1cc2c(Oc3ccc4[nH]c(C)cc4c3F)ncnc2cc1OCCCN1CCCC1 [CEDIRANIB] | – | – | – | > 30 µM (inactive) | – | –
Cn1c(=O)n(-c2ccc(C(C)(C)C#N)cc2)c2c3cc(-c4cnc5ccccc5c4)ccc3ncc21 [DACTOLISIB] | > 30 µM (inactive) | > 30 µM (inactive) | > 30 µM (inactive) | > 30 µM (inactive) | > 30 µM (inactive) | –
CC[C@@](C)(Nc1ccnc(-c2c[nH]c3ncccc23)n1)C(=O)NCC(F)(F)F [DECERNOTINIB] | > 30 µM (inactive) | – | – | > 30 µM (inactive) | > 30 µM (inactive) | > 30 µM (inactive)
CNC(=O)c1ccc(Nc2ncc(C(F)(F)F)c(NCc3nccnc3N(C)S(C)(=O)=O)n2)cc1 [DEFACTINIB] | > 30 µM (inactive) | > 30 µM (inactive) | – | > 30 µM (inactive) | > 30 µM (inactive) | > 30 µM (inactive)
O=S(=O)(c1cccc2cnccc12)N1CCCNCC1 [FASUDIL] | > 30 µM (inactive) | > 30 µM (inactive) | > 30 µM (inactive) | > 30 µM (inactive) | > 30 µM (inactive) | –
Cc1c(Cn2c(C)nc3c(C(=O)O)cc(N4CCOCC4)cc32)cccc1C(F)(F)F [GSK-2636771] | > 30 µM (inactive) | > 30 µM (inactive) | – | > 30 µM (inactive) | > 30 µM (inactive) | > 30 µM (inactive)
C[C@]1(O)C[C@@H](c2nc(-c3ccc4ccc(-c5ccccc5)nc4c3)c3c(N)nccn32)C1 [LINSITINIB] | > 30 µM (inactive) | > 30 µM (inactive) | > 30 µM (inactive) | > 30 µM (inactive) | > 30 µM (inactive) | –
